Consider twelve compounds from patent publication US6100074A, “Mutant mono-oxygenase cytochrome P-450 cam” (BG plc, priority 1994, dated 2000).

Where two headings read alike, the source gives them in different places.

In experiment [1] the target is T1, wild type P450cam (Pseudomonas putida, UniProt P00183). The experiment is classed as binding. To be noted: Wild type; 200 μM test compound, phosphate buffer pH 7.4.
Target sequence in this assay (P00183 whole entry): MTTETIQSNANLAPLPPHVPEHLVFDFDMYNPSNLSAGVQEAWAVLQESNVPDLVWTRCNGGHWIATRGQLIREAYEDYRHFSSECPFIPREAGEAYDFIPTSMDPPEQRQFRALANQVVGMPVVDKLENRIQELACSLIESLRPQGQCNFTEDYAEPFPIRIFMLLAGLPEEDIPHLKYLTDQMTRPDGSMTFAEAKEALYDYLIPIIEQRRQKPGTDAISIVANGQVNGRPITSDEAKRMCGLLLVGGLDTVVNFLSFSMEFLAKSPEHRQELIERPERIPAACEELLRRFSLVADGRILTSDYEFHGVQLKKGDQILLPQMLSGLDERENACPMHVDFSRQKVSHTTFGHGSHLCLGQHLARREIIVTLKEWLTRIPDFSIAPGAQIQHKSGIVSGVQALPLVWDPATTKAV
Experiment [2] concerns the target T1, wild type P450cam. The experiment is described as follows: biochemical. The experiment is classed as binding. Conditions: read-out: Vs DTT (percentage displacement of DTT bound to P-450).
Target sequence in this assay (P00183 whole entry): as above
The target of experiment [3] is T2, P450cam mutant Y96A, C334A (Pseudomonas putida, UniProt P00183, C335A/Y97A).
T2 construct: reconstituted with putidaredoxin and putidaredoxin reductase
T2 sequence (P00259 whole entry): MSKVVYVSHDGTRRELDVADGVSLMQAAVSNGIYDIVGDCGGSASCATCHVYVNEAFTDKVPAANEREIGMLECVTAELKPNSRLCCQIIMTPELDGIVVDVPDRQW
T2 sequence (P00183 2-415 Y97A/C335A): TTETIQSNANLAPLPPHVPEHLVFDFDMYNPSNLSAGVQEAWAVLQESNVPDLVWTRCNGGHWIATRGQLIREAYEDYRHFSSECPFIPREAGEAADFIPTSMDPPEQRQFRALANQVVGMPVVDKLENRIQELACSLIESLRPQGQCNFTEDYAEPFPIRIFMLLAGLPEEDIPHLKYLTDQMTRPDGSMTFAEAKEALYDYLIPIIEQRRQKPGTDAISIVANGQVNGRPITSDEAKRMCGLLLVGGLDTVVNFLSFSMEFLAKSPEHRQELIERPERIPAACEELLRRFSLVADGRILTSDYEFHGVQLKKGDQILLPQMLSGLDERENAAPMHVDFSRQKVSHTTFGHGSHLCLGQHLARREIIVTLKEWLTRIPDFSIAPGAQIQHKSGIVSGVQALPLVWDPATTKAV
T2 sequence (P16640 whole entry, further chain): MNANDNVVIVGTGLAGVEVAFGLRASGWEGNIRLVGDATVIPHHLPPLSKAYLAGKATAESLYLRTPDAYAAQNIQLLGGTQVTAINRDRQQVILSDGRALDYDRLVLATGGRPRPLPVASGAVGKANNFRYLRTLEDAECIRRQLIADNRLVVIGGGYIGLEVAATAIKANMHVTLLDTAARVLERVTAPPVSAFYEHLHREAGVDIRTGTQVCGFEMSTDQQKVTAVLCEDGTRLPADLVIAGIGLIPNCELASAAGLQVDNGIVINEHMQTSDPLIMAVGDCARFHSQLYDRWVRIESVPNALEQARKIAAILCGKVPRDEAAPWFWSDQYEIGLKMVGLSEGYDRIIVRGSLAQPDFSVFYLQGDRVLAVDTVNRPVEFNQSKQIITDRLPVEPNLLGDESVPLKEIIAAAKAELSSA
The experiment is classed as biochemical, P. putida. On the procedure: (§1) […] The enzymatic reaction was initiated by firstly adding NADH to a total concentration of 2 mM. Further four aliquots of NADH (to increase the NADH concentration by 1 mM each time) were added in intervals of 5 min and the reaction quenched after 30 min by adding 0.5 ml chloroform. The chloroform layer was analysed by gas chromatography.
(§2) Reaction products for some substrate compounds have been purified by high performance liquid chromatography and identified by mass spectroscopy, nuclear magnetic resonance, and/or co-elution. […] Table 4(a) to 4(h) details the product distributions for mutant and substrate combinations where this has been elucidated to date.
(§3) Product structure and distributions following oxidation of substrates
(§4) active site mutants. All mutants shown below also contain the C334A

The target in experiment [4] is T3, P450cam mutant Y96F, C334A (Pseudomonas putida, UniProt P00183, C335A/Y97F).
T3 construct: reconstituted with putidaredoxin and putidaredoxin reductase
T3 sequence (P16640 whole entry): as the sequence (P16640 whole entry, further chain) above
T3 sequence (P00183 2-415 Y97F/C335A): as the sequence (P00183 2-415 Y97A/C335A) above, with A96F counted along it
T3 sequence (P00259 whole entry, further chain): as the sequence (P00259 whole entry) above
Format: biochemical, P. putida. On the procedure: as §1, §2, §3, §4

The target of experiment [5] is T4, P450cam mutant Y96L, C334A (Pseudomonas putida, UniProt P00183, C335A/Y97L).
T4 construct: reconstituted with putidaredoxin and putidaredoxin reductase
T4 sequence (P00259 whole entry): as above
T4 sequence (P16640 whole entry, further chain): as the sequence (P16640 whole entry, further chain) above
T4 sequence (P00183 2-415 Y97L/C335A): as the sequence (P00183 2-415 Y97A/C335A) above, with A96L counted along it
Briefly: Product distribution following oxidation of substrates, Y96L (also C334A). The experiment is classed as biochemical, P. putida. On the procedure:
as §1, §2, §3, §4

For experiment [6], the target named is T5, P450cam mutant Y96V, C334A (Pseudomonas putida, UniProt P00183, C335A/Y97V).
T5 construct: reconstituted with putidaredoxin and putidaredoxin reductase
T5 sequence (P16640 whole entry): as the sequence (P16640 whole entry, further chain) above
T5 sequence (P00259 whole entry, further chain): as the sequence (P00259 whole entry) above
T5 sequence (P00183 2-415 Y97V/C335A): as the sequence (P00183 2-415 Y97A/C335A) above, with A96V counted along it
Briefly: Product distribution following oxidation of substrates, Y96V (also C334A). The experiment is classed as biochemical, P. putida. As to the method: as §1, §2, §3, §4

Experiment [7] concerns the target T1, wild type P450cam. Briefly: Product distribution following oxidation of substrates, WT. The experiment is classed as biochemical, P. putida. The arrangement: reconstituted with putidaredoxin and putidaredoxin reductase. On the procedure:
as §1, §2, §3
Target sequence in this assay (P00259 whole entry): as the sequence (P00259 whole entry) above
Target sequence in this assay (P00183 whole entry): as the sequence (P00183 whole entry) above
Target sequence in this assay (P16640 whole entry, further chain): as the sequence (P16640 whole entry, further chain) above

Experiment [8] concerns the target T6, P-450cam mutant Y96A (Pseudomonas putida, UniProt P00183, Y97A). Briefly: biochemical. To be noted: for percent displacement of bound DTT at 200 µM / Vs DTT (percentage displacement of DTT bound to P-450): phosphate buffer; for percent displacement of bound DTT at 200 µM / inhibition at 200 µM: read-out: Vs DTT (percentage displacement of DTT bound to P-450); for Vs DTT (percentage displacement of DTT bound to P-450): 200 µM. Format: binding.

Experiment [9] concerns the target T7, P450cam mutant F87A-F96G-F193A (C334A) (Pseudomonas putida, UniProt P00183, C335A/F194A/F88A/Y97G).
T7 construct: reconstituted with putidaredoxin and putidaredoxin reductase
Format: biochemical, P. putida. On the procedure: as §1, §2, §3, §4

Experiment [10] addresses T6, P-450cam mutant Y96A. Format: biochemical. On the set-up: key: Those substrates where oxidation has been demonstrated by means of NADH turnover are marked with a + sign.
Experiment [11] concerns the target T2, P450cam mutant Y96A, C334A. Format: biochemical, P. putida. Conditions: also contains C334A. As to the method:
A solution containing 10 μM putidaredoxin, 2 μM putidaredoxin reductase, 1 μM cytochrome P-450cam mono-oyxgenase (wild-type or mutant) and 1 mM diphenylmethane in 100 mM KC1, 20 mM KH2 PO4 pH7.4 was preincubated at 25° C. in a shaker for 5 min. The enzymatic reaction was initiated by firstly adding NADH to a total concentration of 2 mM. Further four aliquots of NADH (to increase the NADH concentration by 1 mM each time) were added in intervals of 5 min and the reaction quenched after 30 min by adding 0.5 ml chloroform. The chloroform layer was analysed by gas chromatography.
as §2
All mutants listed below also contain the C334A mutation.
Turnover rate measured as NADH consumption rate
(nmole NADH/nmole P450cam/s).

The mark [12] stands for this setting: Wild type, 200 μM DTT, 200 μM test compound, phosphate buffer.
[13] abbreviates: Mutant Y96A, 200 μM DTT, 200 μM test compound.

T7 sequence (P00259 whole entry): as the sequence (P00259 whole entry) above
T7 sequence (P16640 whole entry, further chain): as the sequence (P16640 whole entry, further chain) above
T7 sequence (P00183 2-415 F88A/Y97G/F194A/C335A): as the sequence (P00183 2-415 Y97A/C335A) above, with F87A, A96G, F193A counted along it
T6 sequence (P00183 2-415 Y97A): as the sequence (P00183 2-415 Y97A/C335A) above, with A334C counted along it

Consider `c1ccc(C2CCCCC2)cc1` [Cyclohexylbenzene], for which the “ΔSpin high/low (percentage of P-450 converted from low- to high-spin)” value on wild type P450cam [1] is 20%. For the same compound, the inhibition at 200 µM at wild type P450cam [2] (setting [12]) was determined as 20%. In addition, the Total products is listed as 7.4 area/10^5 in experiment [3]; 1.1 area/10^5 in experiment [4]; 10.4 area/10^5 in experiment [5]; 12.5 area/10^5 in [6]; 0.8 area/10^5 at wild type P450cam [7]. In addition, the “Products (%): 3-ol” value in [3] (cyclohexylbenzene) is recorded as 20%. Also, the “Products (%): Cis-4-ol” value in [3] (cyclohexylbenzene) stood at 45%; in experiment [4] (cyclohexylbenzene) it was 13%; in experiment [5] (cyclohexylbenzene), 16%; in experiment [6] (cyclohexylbenzene), 23%; at wild type P450cam [7] (cyclohexylbenzene), 12%. Besides, the “Products (%): Trans-4-ol” value is on record as 15% in experiment [3] (cyclohexylbenzene); 6% in experiment [4] (cyclohexylbenzene); 23% in experiment [5] (cyclohexylbenzene); 10% in experiment [6] (cyclohexylbenzene); 25% on wild type P450cam [7] (cyclohexylbenzene).
Regarding `C1=CC2C3C=CC(C3)C2C1` (centres unmarked) [Dicyclopentadiene], the “ΔSpin high/low (percentage of P-450 converted from low- to high-spin)” value at wild type P450cam [1] was 50%. Also, the inhibition at 200 µM at wild type P450cam [2] (setting [12]) was 80%. Also, the percent displacement of bound DTT at 200 µM on P-450cam mutant Y96A [8] (setting [13]) came out at 90%.
Regarding `c1ccc(Oc2ccccc2)cc1` [Diphenylether], on wild type P450cam [1], the “ΔSpin high/low (percentage of P-450 converted from low- to high-spin)” value came out at 10%. Also, the inhibition at 200 µM on wild type P450cam [2] (setting [12]) turned out to be 5%. Besides, the percent displacement of bound DTT at 200 µM at P-450cam mutant Y96A [8] (setting [13]) worked out at 50%.
In the case of `c1ccc2c(c1)-c1cccc3cccc-2c13` [Fluoranthene], the inhibition at 200 µM at wild type P450cam [2] amounted to 5%; on P-450cam mutant Y96A [8], 10%. Further, the Total products in experiment [9] was 0.2 area/10^6; in experiment [3], 2.7 area/10^6; at wild type P450cam [7] it was 0 area/10^6. In addition, the “Products (%): A” value came to 0% in experiment [9] (fluoranthene), 84% in experiment [3] (fluoranthene) and 0% at wild type P450cam [7] (fluoranthene). In addition, the “Products (%): B” value was found to be 100% in experiment [9] (fluoranthene), 16% in experiment [3] (fluoranthene) and 0% on wild type P450cam [7] (fluoranthene).
For the compound `CCCCCC` [Hexane], at P-450cam mutant Y96A [8], the “Vs DTT (percentage displacement of DTT bound to P-450)” value is 40 and the inhibition at 200 µM stood at 60%. The “NADH turnover?” value on P-450cam mutant Y96A [10] was “+”. Besides, the “Turnover rate measured as NADH consumption rate” value in experiment [11] is 6.0 nmole NADH/nmole P450cam/s. Further, in experiment [3], the “Relative activity (WT = 1)” value was 25.5. The “Relative activity (WT = 1)” value in experiment [4] is recorded as 18.2.
As to `CC1CCCCC1` [Methylcyclohexane], the “ΔSpin high/low (percentage of P-450 converted from low- to high-spin)” value at wild type P450cam [1] stood at 50%. Moreover, the inhibition at 200 µM on wild type P450cam [2] (setting [12]) was found to be 50%. Besides, at P-450cam mutant Y96A [8] (setting [13]), the “Vs DTT (percentage displacement of DTT bound to P-450)” value is 70% and the percent displacement of bound DTT at 200 µM stood at 60%.
In the case of `c1ccc2ccccc2c1` [Naphthalene], on P-450cam mutant Y96A [8] (setting [13]), the percent displacement of bound DTT at 200 µM was found to be 20%. The Total products in experiment [9] amounted to 0.1 area/10^5; in experiment [3], 1.1 area/10^5; in experiment [4], 2.4 area/10^5; in [5], 0.7 area/10^5; in experiment [6] it was 1.4 area/10^5; on wild type P450cam [7], 0.016 area/10^5. Besides, the “Products (%): 1-ol” value (in experiment [9] (naphthalene); in [3] (naphthalene); in experiment [4] (naphthalene); in experiment [5] (naphthalene); in experiment [6] (naphthalene); on wild type P450cam [7] (naphthalene)) was 100% each time. Moreover, the “Products (%): 2-ol” value (in experiment [9] (naphthalene); in [3] (naphthalene); in experiment [4] (naphthalene); in experiment [5] (naphthalene); in experiment [6] (naphthalene); on wild type P450cam [7] (naphthalene)) was 0% in each case.
Take `c1cc2ccc3cccc4ccc(c1)c2c34` [Pyrene]: the Total products in experiment [9] stood at 0.02 area/10^6; in experiment [3], 1.2 area/10^6; in experiment [4], 1.5 area/10^6; in [5] it was 1.5 area/10^6; in experiment [6], 1.6 area/10^6; on wild type P450cam [7] it was 0 area/10^6.
In the case of `CCCCCCCCC` [n-Nonane], the percent displacement of bound DTT at 200 µM at P-450cam mutant Y96A [8] (setting [13]) was found to be 45%. Moreover, at P-450cam mutant Y96A [10], the “NADH turnover?” value is given as “+”.
On to `CCCCCCCC` [n-Octane], for which the inhibition at 200 µM at wild type P450cam [2] (setting [12]) is 5%. Moreover, on P-450cam mutant Y96A [8] (setting [13]), the percent displacement of bound DTT at 200 µM worked out at 45%. Also, on P-450cam mutant Y96A [10], the “NADH turnover?” value is on record as “+”. Besides, the “Turnover rate measured as NADH consumption rate” value in experiment [11] is listed as 5.8 nmole NADH/nmole P450cam/s.
The matching figures for `CCCCC` [n-Pentane]: 5%, 40%, “+” and 5.8 nmole NADH/nmole P450cam/s.
On to `C1CC[C@H]2CCCC[C@@H]2C1` [trans-Decahydro naphthalene], for which, at wild type P450cam [1], the “ΔSpin high/low (percentage of P-450 converted from low- to high-spin)” value came to 20%. In addition, the inhibition at 200 µM on wild type P450cam [2] (setting [12]) amounted to 10%. Also, the percent displacement of bound DTT at 200 µM at P-450cam mutant Y96A [8] (setting [13]) came out at 70%.
